In patent US20160002247A1, “8-SUBSTITUTED IMIDAZOPYRIMIDINONE DERIVATIVE HAVING AUTOTAXIN INHIBITORY ACTIVITY” (THE UNIVERSITY OF TOKYO, priority 2013, published 2016) one finds IC50 data, which are given here for 45 molecules.

SMILES strings stand for the structures. Read-outs that look alike come from different tables or passages of the source.

This assay concerns the target T1, Human autotaxin enzyme (Homo sapiens, UniProt Q13822).
T1 construct: purchased R&D System
The experiment in a line: Evaluation of autotaxin inhibitor, Method C (Test Example 3): 18:0 Lyso PC, choline assay, Resorufin fluorescence. Type of assay: biochemical. Particulars: human autotaxin, 18:0 Lyso PC substrate. The protocol: (Method C) Evaluation of Autotaxin Inhibitor
Solution B containing 100 mM Tris-HCl buffer (pH7.5), 150 mM NaCl, 5 mM MgCl2 and 0.05% Triton X-100 was prepared. Human autotaxin enzyme (purchased from R&D System) was diluted with Solution B, and 2.5 μL of which was added to a solution of test compound in DMSO. Furthermore, 2.5 μl of 200 μM 18:0 Lyso PC (purchased from Avanti Polar Lipids) in Solution B was added and allowed to react at room temperature for 2 hours. After completion of the reaction, 15 μL of the coline assay reagent (100 mM Tris-HCl buffer (pH7.5), 5 mM MgCl2, 77 μg/mL choline oxidase, 10 μg/mL peroxidase, 25 μM 10-acetyl-3,7-dihydroxyphenoxazine and excess autotaxin inhibitor) was added and allowed to react at room temperature for 20 minutes. The fluorescent dye Resorufin, which was produced by the reaction, was detected. The fluorescence was detected using ViewLux (PerkinElmer, Inc.) with an excitation wavelength of 531 nm and a fluorescence wavelength of 598 nm.
The percent inhibition of the test compound was calculated by assuming the sample with no test compound as 0% inhibition and the sample with no enzyme as 100% inhibition, and the percent inhibitions at different concentrations of the test compound were plotted to obtain a concentration-dependent curve.

[1] abbreviates: Assay Method C, read-out: Inhibitory Activity.
Where [2] appears, read: Assay Method C (Test Example 3), read-out: Inhibitory Activity (autotaxin enzyme inhibitory activity, IC50 class).

For the molecule `O=C1CN(C(=O)Cc2cn(CCCC(F)(F)F)c3nc(-c4ccc(Cl)cc4)cn3c2=O)CCN1` [Compound 847], the IC50 under setting [1] was over 1000 nM.
As for `CCCCCn1c(N2CCCC(C3CCCCC3)C2)cc(=O)n2cc(-c3ccc(Cl)cc3)nc12` (stereo not drawn) [Compound 307], the IC50 under setting [2] was over 1000 nM.
The same measure, in the same setting: in the case of `CCCCCn1c(N2C[C@H](O)C[C@H]2C(=O)NC(C)(C)CC(=O)OCC)cc(=O)n2cc(-c3ccc(Cl)cc3)nc12` [Compound 597] it was 10 to 100 nM; in that of `CCCCCn1c(N(C)CC(=O)NCCC(=O)O)cc(=O)n2cc(-c3ccc(Cl)cc3)nc12` [Compound 618], 10 to 100 nM.
On to `CCCCCn1c(-c2ccc(C(=O)Nc3ncco3)cc2)cc(=O)n2cc(-c3ccc(Cl)cc3)nc12` [Compound 488], for which, under setting [2], the IC50 lay within 10 to 100 nM.
For the molecule `CCCCCn1c(N2CCC[C@H]2C(=O)N[C@@H](CC2CCCCC2)C(=O)O)cc(=O)n2cc(-c3ccc(Cl)cc3)nc12` [Compound 734], the IC50 under setting [2] was under 10 nM.
In the case of `NC(=O)CNC(=O)Cc1cn(CCCC(F)(F)F)c2nc(-c3ccc(Cl)cc3)cn2c1=O` [Compound 841], under setting [1], the IC50 was over 1000 nM.
As for `NC(=O)c1ccc(-c2cc(=O)n3cc(-c4ccc(Cl)cc4)nc3n2CCCC(F)(F)F)cc1` [Compound 382], the IC50 under setting [2] fell in the range of 10 to 100 nM.
Same read-out and setting: in the case of `CCCCCn1c(N2C[C@@H](O)C[C@H]2C(=O)NC(C)(C)CC(=O)OCC)cc(=O)n2cc(-c3ccc(Cl)cc3)nc12` [Compound 598] it was 10 to 100 nM; in that of `CCCCCn1c(N2CCNC(=O)C2)cc(=O)n2cc(-c3ccc(Cl)cc3)nc12` [Compound 293], 100 to 1000 nM; in that of `O=C(O)CNC(=O)[C@@H]1CCCN1c1cc(=O)n2cc(-c3ccc(Cl)cc3)nc2n1Cc1ccccc1` [Compound 744], 10 to 100 nM.
Consider `CCCCCn1c(N2C[C@@H](O)C[C@H]2C(=O)N[C@@H](Cc2ccccc2)C(=O)O)cc(=O)n2cc(-c3ccc(Cl)cc3)nc12` [Compound 775], for which, under setting [2], the IC50 is under 10 nM.
For `CCCCCn1c(N2CCCC(C)(C)C2)cc(=O)n2cc(-c3ccc(Cl)cc3)nc12` [Compound 804], the IC50 under setting [1] is over 1000 nM.
For `CCCCCn1c(N2CCC(C(F)(F)F)C2)cc(=O)n2cc(-c3ccc(Cl)cc3)nc12` (stereo not drawn) [Compound 323], the IC50 under setting [2] lay within 100 to 1000 nM.
The same measure, in the same setting: in the case of `CCCCCn1c(N2CCCC[C@@H]2C(=O)NCC(=O)O)cc(=O)n2cc(-c3ccc(Cl)cc3)nc12` [Compound 638] it was 100 to 1000 nM; in that of `CCCCCn1c(N2CCC[C@H]2C(=O)NCCCOC)cc(=O)n2cc(-c3ccc(Cl)cc3)nc12` [Compound 338], 10 to 100 nM.
On the same count and under the same terms, as for `CCCCCn1c(N2CCC[C@H]2C(=O)NCCC(=O)OC)cc(=O)n2cc(-c3ccc(Cl)cc3)nc12` [Compound 340], the figure is 10 to 100 nM; as for `O=C(O)CNC(=O)[C@@H]1C[C@@H](O)CN1c1cc(=O)n2cc(-c3ccc(Cl)cc3)nc2n1Cc1ccccc1` [Compound 750], 10 to 100 nM.
On to `CCCCCn1c(-c2cc(NC(C)=O)cc(C(=O)O)c2)cc(=O)n2cc(-c3ccc(Cl)cc3)nc12` [Compound 427], for which, under setting [2], the IC50 was in the range of 10 to 100 nM.
On the same count and under the same terms, as for `CCCCCn1c(OCc2ccc(C(=O)O)cc2)cc(=O)n2cc(-c3ccc(Cl)cc3)nc12` [Compound 194], the figure is 10 to 100 nM; as for `CCCCCn1c(N2CCC[C@H]2C(=O)NCC(=O)C(C)(C)C)cc(=O)n2cc(-c3ccc(Cl)cc3)nc12` [Compound 706], 10 to 100 nM.
For `CCCCCn1c(-c2ccc(C(=O)NCCN)cc2)cc(=O)n2cc(-c3ccc(Cl)cc3)nc12` [Compound 364, N-(2-aminoethyl)-4-(2-(4-chlorophenyl)-5-oxo-8-pentyl-5,8-dihydroimidazo[1,2-a]pyrimidin-7-yl)benzamide], the IC50 under setting [2] lay in the range of 10 to 100 nM.
The same measure, in the same setting: in the case of `CCCCCn1c(N2CCC[C@H](C(=O)OCC)C2)cc(=O)n2cc(-c3ccc(Cl)cc3)nc12` [Compound 671] it was 100 to 1000 nM; in that of `CCCCCn1c(N(Cc2ccc(C(=O)OC)cc2)C(C)=O)cc(=O)n2cc(-c3ccc(Cl)cc3)nc12` [Compound 566], 10 to 100 nM.
Regarding `N#CNC(=O)Cc1cn(CCCC(F)(F)F)c2nc(-c3ccc(Cl)cc3)cn2c1=O` [Compound 835], under setting [1], the IC50 was over 1000 nM.
For `CCCCCn1c(-c2ccc(N3C[C@@H](CNC(C)=O)OC3=O)cc2F)cc(=O)n2cc(-c3ccc(Cl)cc3)nc12` [Compound 449], under setting [2], the IC50 lay within 10 to 100 nM.
Same read-out and setting: as for `CCCCCn1c(N2CCC[C@H]2C(=O)NC(C)(C)C(=O)O)cc(=O)n2cc(-c3ccc(Cl)cc3)nc12` [Compound 674], the figure is under 10 nM; as for `Cc1cc(=O)n2cc(-c3ccc(Cl)cc3)nc2n1CCCCCC#N` [Compound 98], 10 to 100 nM.
For the molecule `C[C@H](NC(=O)[C@@H]1C[C@@H](O)CN1c1cc(=O)n2cc(-c3ccc(Cl)cc3)nc2n1C)C(=O)O` [Compound 782], under setting [1], the IC50 was 100 to 1000 nM.
As to `CCCCCn1c(-c2ccc(C(=O)NCCS(N)(=O)=O)cc2)cc(=O)n2cc(-c3ccc(Cl)cc3)nc12` [Compound 499], the IC50 under setting [2] was 10 to 100 nM.
Consider `CCCCCn1c(N2CCC[C@H](C)C2)cc(=O)n2cc(-c3ccc(Cl)cc3)nc12` [Compound 812], for which the IC50 under setting [1] lay within 100 to 1000 nM.
On to `CCCCCn1c(N2C[C@@H](F)C[C@H]2C(=O)NC(C)(C)CC(=O)O)cc(=O)n2cc(-c3ccc(Cl)cc3)nc12` [Compound 584], for which the IC50 under setting [2] was under 10 nM.
Regarding `CCCCCn1c(-c2ccccn2)cc(=O)n2cc(-c3ccc(Cl)cc3)nc12` [Compound 528], under setting [2], the IC50 fell in the range of 100 to 1000 nM.
Take `CCCCCn1c(-c2cnc(OC)nc2)cc(=O)n2cc(-c3ccc(Cl)cc3)nc12` [Compound 373]: the IC50 under setting [2] lay within 10 to 100 nM.
On the same count and under the same terms, as for `CCCCCn1c(N2CCN(C(=O)N3CCCCC3)CC2)cc(=O)n2cc(-c3ccc(Cl)cc3)nc12` [Compound 291], the figure is 100 to 1000 nM; as for `CN(C)CCNC(=O)c1ccc(-c2cc(=O)n3cc(-c4ccc(C(F)(F)F)cc4)nc3n2CCCCC#N)cc1` [Compound 377], 10 to 100 nM; as for `CCCCCn1c(N2CCC[C@H]2C(=O)N[C@H]2CCNC2=O)cc(=O)n2cc(-c3ccc(Cl)cc3)nc12` [Compound 708], 10 to 100 nM.
Take `CCCCCn1c(N2CCC[C@H]2C(=O)NCCCCN2CCN(C)CC2)cc(=O)n2cc(-c3ccc(Cl)cc3)nc12` [Compound 652]: the IC50 under setting [2] fell in the range of 10 to 100 nM.
The same measure, in the same setting: in the case of `CCCCCn1c(-c2cccc(C(=O)NCc3ccccc3)c2)cc(=O)n2cc(-c3ccc(Cl)cc3)nc12` [Compound 428] it was 100 to 1000 nM; in that of `CCCCCn1c(-c2ccc(F)nc2)cc(=O)n2cc(-c3ccc(Cl)cc3)nc12` [Compound 457], 10 to 100 nM.
`CN(C)CCNC(=O)c1ccc(-c2cc(=O)n3cc(-c4ccc(Cl)cc4)nc3n2CCCCC#N)cc1` [Compound 378]: the IC50 under setting [2] was 10 to 100 nM.
Same read-out and setting: as for `CCCCCn1c(-c2ccc(C(=O)NCc3ccc(N4CCOCC4)cc3)cc2)cc(=O)n2cc(-c3ccc(Cl)cc3)nc12` [Compound 509], the figure is 10 to 100 nM.
The same measure, in the same setting: in the case of `CCCCCn1c(N2CCC[C@H]2C(=O)NC(C)CC(=O)O)cc(=O)n2cc(-c3ccc(Cl)cc3)nc12` (stereo partly drawn) [Compound 356] it was under 10 nM; in that of `CCCCCn1c(N2CCN(C(=O)c3ccc([N+](=O)[O-])cc3)CC2)cc(=O)n2cc(-c3ccc(Cl)cc3)nc12` [Compound 292], 100 to 1000 nM; in that of `CCCCCn1c(-c2ccc(C(=O)NCc3ccc([N+](=O)[O-])cc3)cc2)cc(=O)n2cc(-c3ccc(Cl)cc3)nc12` [Compound 518], 100 to 1000 nM.
